In paper PMC9402538, “Rational design of a sensitivity-enhanced tracer for discovering efficient APC–Asef inhibitors” (Nature Communications, 2022) one finds IC50 data, which are given here for six molecules.

For one assay, the target named is T1, APC (Homo sapiens, UniProt P25054).
T1 sequence (P25054 303-739): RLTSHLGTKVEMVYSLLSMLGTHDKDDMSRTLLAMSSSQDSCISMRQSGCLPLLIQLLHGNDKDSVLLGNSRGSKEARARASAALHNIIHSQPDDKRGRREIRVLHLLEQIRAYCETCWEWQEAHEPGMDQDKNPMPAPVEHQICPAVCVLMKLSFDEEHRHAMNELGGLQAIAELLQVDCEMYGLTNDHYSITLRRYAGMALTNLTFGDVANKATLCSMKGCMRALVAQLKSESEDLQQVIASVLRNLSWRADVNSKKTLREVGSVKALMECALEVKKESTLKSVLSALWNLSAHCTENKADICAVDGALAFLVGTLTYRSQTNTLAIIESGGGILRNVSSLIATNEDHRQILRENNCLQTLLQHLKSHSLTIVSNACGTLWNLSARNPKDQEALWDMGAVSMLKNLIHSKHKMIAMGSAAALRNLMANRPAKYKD
The assay can be described thus: FP competitive assay using tracer 1. The format is binding. On the procedure:
In our previous study, we established an FP assay for screening APC–Asef inhibitors using FITC-labeled tracer 1 (Ac–^176[…][FITC]^195–NH2)[16]. […]. However, their Kd values measured by isothermal titration calorimetry (ITC) actually vary up to more than 20 times[16],[17]. […].
FITC-labeled tracer peptides were obtained from Changzhou Kanglong Biotech Ltd. (Changzhou, Jiangsu, China). […]. The FP signal changes upon tracer binding were measured after 1.5 h of incubation using a Synergy neo microplate reader (BioTek Instruments, Inc.) and plotted against the protein concentration. The corresponding EC50 values were generated by fitting the curves with a nonlinear regression model. […]. To make a working solution, APC (303–739) was diluted in FP buffer (50 mM HEPES, pH 7.5, 300 mM NaCl, 1 mM EDTA, 1 mM DTT). […] The FP signals were measured after 1.5 h of incubation at room temperature using a Synergy neo microplate reader. Three controls were included on each plate, i.e., blank (without protein and tracer), 100% inhibition (free tracer only), and 0% inhibition (protein/tracer complex only) controls. All experiments were performed in triplicate. The IC50 values of peptides were calculated by nonlinear regression analysis using GraphPad Prism 7.0 software.

The next assay deals with T2, APC (303–739) (Homo sapiens, UniProt P25054).
T2 sequence (P25054 303-739): T1 sequence (P25054 303-739)
The assay can be described thus: FP competitive assay using tracer 7. Particulars: IC50, Tracer 7, Supplementary Table 4. The format is binding. On the procedure:
FITC-labeled tracer peptides were obtained from Changzhou Kanglong Biotech Ltd. (Changzhou, Jiangsu, China). […]. The FP signal changes upon tracer binding were measured after 1.5 h of incubation using a Synergy neo microplate reader (BioTek Instruments, Inc.) and plotted against the protein concentration. The corresponding EC50 values were generated by fitting the curves with a nonlinear regression model. […]. To make a working solution, APC (303–739) was diluted in FP buffer (50 mM HEPES, pH 7.5, 300 mM NaCl, 1 mM EDTA, 1 mM DTT). The diluted APC protein (91 μL) was combined with a serial dilution of peptides (4 μL) and incubated at room temperature for 1 h, followed by the addition of 5 μL of 400 nM tracer 7. The FP signals were measured after 1.5 h of incubation at room temperature using a Synergy neo microplate reader. Three controls were included on each plate, i.e., blank (without protein and tracer), 100% inhibition (free tracer only), and 0% inhibition (protein/tracer complex only) controls. All experiments were performed in triplicate. The IC50 values of peptides were calculated by nonlinear regression analysis using GraphPad Prism 7.0 software.

As a reminder, the IC50 is the midpoint of a concentration-inhibition curve.

Like-named read-outs stand apart in the source and are kept apart here. Where a SMILES comes first, the peptide text is derived from it. [ ]: non-standard residue; d: D form. The star is where a group is joined. Bpa = N[C@@H](Cc1ccc(C(=O)c2ccccc2)cc1)C(=O)O; 2Furoyl = O=C(c1ccco1)*; X1 = CSc1nccc(C(=O)*)n1; Bz = O=C(c1ccccc1)*

Take `CSc1nccc(C(=O)N[C@@H](C)C(=O)NCC(=O)N[C@@H](CCC(=O)O)C(=O)N[C@@H](CO)C(=O)N[C@@H](CC(C)C)C(=O)N[C@@H](Cc2ccc(O)cc2)C(=O)N[C@@H](CCC(=O)O)C(N)=O)n1` [MAI-456] (X1-AGESLYE-NH2): on APC (Supplementary Table 4, read-out: IC50, Tracer 1), the IC50 turned out to be 570 ± 120 nM.

As to `C[C@H](NC(=O)c1ccccc1)C(=O)NCC(=O)N[C@@H](CCC(=O)O)C(=O)N[C@@H](CO)C(=O)N[C@@H](Cc1ccc(O)cc1)C(=O)N[C@@H](Cc1ccc(O)cc1)C(=O)N[C@@H](CCC(=O)O)C(N)=O` [MAI-458] (Bz-AGESYYE-NH2), the IC50 was found to be 590 ± 140 nM at APC and 900 ± 30 nM at APC (303–739).

On to `CC(C)C[C@H](NC(=O)[C@H](CO)NC(=O)[C@H](CCC(=O)O)NC(=O)CNC(=O)[C@H](C)NC(=O)c1ccccc1)C(=O)N[C@@H](Cc1c[nH]c2ccccc12)C(=O)N[C@@H](CCC(=O)O)C(N)=O` [MAI-452] (Bz-AGESLWE-NH2), for which the IC50 came to 440 ± 150 nM on APC and 170 ± 10 nM on APC (303–739).

Consider `CC(C)C[C@H](NC(=O)[C@H](CO)NC(=O)[C@H](CCC(=O)O)NC(=O)CNC(=O)[C@H](C)NC(=O)c1ccccc1)C(=O)N[C@@H](Cc1ccc(O)cc1)C(=O)N[C@@H](Cc1ccc(C(=O)c2ccccc2)cc1)C(N)=O` [MAI-457] (Bz-AGESLY[Bpa]-NH2), for which the IC50 on APC worked out at 590 ± 200 nM.

As for `CC(C)C[C@H](NC(=O)[C@H](CO)NC(=O)[C@H](CCC(=O)O)NC(=O)CNC(=O)[C@H](C)NC(=O)c1ccco1)C(=O)N[C@@H](Cc1ccc(O)cc1)C(=O)N[C@@H](Cc1ccc(C(=O)c2ccccc2)cc1)C(N)=O` [MAI-454] (2Furoyl-AGESLY[Bpa]-NH2), the IC50 at APC turned out to be 480 ± 150 nM.

As for `CC(C)C[C@H](NC(=O)[C@H](CO)NC(=O)[C@H](CCC(=O)O)NC(=O)CNC(=O)[C@H](C)NC(=O)c1ccccc1)C(=O)N[C@@H](Cc1ccc(O)cc1)C(=O)N[C@H](CCC(=O)O)C(N)=O` [MAI-465] (Bz-AGESLY[dE]-NH2), the IC50 at APC is 750 ± 150 nM.
